The record followed here is patent publication US8906909B2 (Curis, Inc., priority 2009, dated 2014).

Each structure is given as a SMILES string. Some results are limits rather than exact numbers.

Data set [1] has as its system HDACs (HeLa cell nuclear extracts). The data set can be described thus: HDAC enzymatic activity, Biomol Color de Lys system. Format: biochemical. The method, boiled down: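 HeLa nuclear extract as HDAC source with Color de Lys substrate in 50 mM Tris/Cl pH 8.0, 137 mM NaCl, 2.7 mM KCl, 1 mM MgCl2. Serially diluted compounds reacted 1 h at 25 °C, then developer added; fluorescence (Ex 350–380/Em 440–460) fitted sigmoidally for IC50.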

On to `COc1ccc(-c2nc(N3CCOCC3)c3sc(NS(=O)(=O)c4cccc(/C=C/C(=O)NO)c4)cc3n2)cn1` [Compound 221, (E)-N-hydroxy-3-(3-(N-(2-(6-methoxypyridin-3-yl)-4-morpholinothieno[3,2-d]pyrimidin-6-yl)sulfamoyl)phenyl)acrylamide], for which the melting point is more than 300 °C. Further, the IC50 in data set [1] was less than 100 nM.
Regarding `COc1ccc(-c2nc(N3CCOCC3)c3sc(NS(=O)(=O)c4ccc(/C=C/C(=O)NO)cc4)cc3n2)cn1` [Compound 222, N-Hydroxy-3-{4-[2-(6-methoxy-pyridin-3-yl)-4-morpholin-4-yl-thieno[3,2-d]pyrimidin-6-ylsulfamoyl]-phenyl}-acrylamide], the melting point is more than 300 °C. For the same compound, the IC50 in data set [1] is less than 100 nM.
The matching figures for `Nc1ncc(-c2nc(N3CCOCC3)c3sc(NCCCC(=O)NO)cc3n2)cn1` [Compound 225, 4-(2-(2-aminopyrimidin-5-yl)-4-morpholinothieno[3,2-d]pyrimidin-6-ylamino)-N-hydroxybutanamide]: 220 to 230 °C and 1000 to 10000 nM.
The matching figures for `Nc1ncc(-c2nc(N3CCOCC3)c3sc(NCCCCC(=O)NO)cc3n2)cn1` [Compound 226]: 175 to 180 °C and less than 100 nM.
Take `CNc1ncc(-c2nc(N3CCOCC3)c3sc(NCCCCC(=O)NO)cc3n2)cn1` [Compound 227, N-Hydroxy-5-(2-(2-(methylamino)pyrimidin-5-yl)-4-morpholinothieno[3,2-d]pyrimidin-6-ylamino)pentanamide]: the melting point is 206 to 210 °C. Further, the IC50 in data set [1] was less than 100 nM.
The matching figures for `Cc1ncc(-c2nc(N3CCOCC3)c3sc(NCCCCC(=O)NO)cc3n2)cn1` [Compound 229, N-Hydroxy-5-(2-(2-methylpyrimidin-5-yl)-4-morpholinothieno[3,2-d]pyrimidin-6-ylamino)pentanamide]: 248 to 252 °C and less than 100 nM.
The matching figures for `Nc1ncc(-c2nc(N3CCOCC3)c3sc(NCCCCCC(=O)NO)cc3n2)cn1` [Compound 232, 6-[2-(2-Amino-pyrimidin-5-yl)-4-morpholin-4-yl-thieno[3,2-d]pyrimidin-6-ylamino]-hexanoic acid hydroxyamide]: 220 to 225 °C and less than 100 nM.
For `COc1ccc(-c2nc(N3CCOCC3)c3sc(NCCCCCC(=O)NO)cc3n2)cn1` [Compound 233, 6-[2-(6-Methoxy-pyridin-3-yl)-4-morpholin-4-yl-thieno[3,2-d]pyrimidin-6-ylamino]-hexanoic acid hydroxyamide], in that order: 125 to 130 °C and less than 100 nM.
`Nc1ncc(-c2nc(N3CCOCC3)c3sc(NCCCCCCC(=O)NO)cc3n2)cn1` [Compound 234, 7-[2-(2-Amino-pyrimidin-5-yl)-4-morpholin-4-yl-thieno[3,2-d]pyrimidin-6-ylamino]-heptanoic acid hydroxyamide] gave a melting point of 235 to 240 °C. Also, the IC50 in data set [1] is less than 100 nM.
The matching figures for `CNc1ccc(-c2nc(N3CCOCC3)c3sc(C(C)N(C)c4ncc(C(=O)NO)cn4)cc3n2)cn1` (stereo not shown) [Compound 237, N-Hydroxy-2-(methyl(1-(2-(6-(methylamino)pyridin-3-yl)-4-morpholinothieno[3,2-d]pyrimidin-6-yl)ethyl)amino)pyrimidine-5-carboxamide]: 270 to 275 °C and less than 100 nM.
The matching figures for `CNc1ccc(-c2nc(N3CCOCC3)c3sc(C(C)(C)Nc4ncc(C(=O)NO)cn4)cc3n2)cn1` [Compound 240, N-Hydroxy-2-(2-(2-(6-(methylamino)pyridin-3-yl)-4-morpholinothieno[3,2-d]pyrimidin-6-yl)propan-2-ylamino)pyrimidine-5-carboxamide]: 200 to 205 °C and less than 100 nM.
For `CN(Cc1cc2nc(-c3cnn(C)c3)nc(N3CCOCC3)c2s1)c1ncc(C(=O)NO)cn1` [Compound 246, N-Hydroxy-2-(methyl((2-(1-methyl-1H-pyrazol-4-yl)-4-morpholinothieno[3,2-d]pyrimidin-6-yl)methyl)amino)pyrimidine-5-carboxamide], in that order: 164 to 169 °C and less than 100 nM.
Regarding `COc1ccc(-c2nc(N3CCOCC3)c3sc(C(C)(C)N(C)c4ncc(C(=O)NO)cn4)cc3n2)cn1` [Compound 251, N-Hydroxy-2-((2-(2-(6-methoxypyridin-3-yl)-4-morpholinothieno[3,2-d]pyrimidin-6-yl)propan-2-yl)(methyl)amino)pyrimidine-5-carboxamide], the melting point is 175 to 178 °C. The IC50 in data set [1] is less than 100 nM.
The matching figures for `COc1ccc(-c2nc(N3CCOCC3)c3sc(S(=O)(=O)Nc4ncc(C(=O)NO)cn4)cc3n2)cn1` [Compound 252, 2-[2-(6-Methoxy-pyridin-3-yl)-4-morpholin-4-yl-thieno[3,2-d]pyrimidine-6-sulfonylamino]-pyrimidine-5-carboxylic acid hydroxyamide]: 259 to 265 °C and less than 100 nM.
For `CCOc1ccc(-c2nc(N3CCOCC3)c3sc(CN(C)c4ncc(C(=O)NO)cn4)cc3n2)cn1` [Compound 255, 2-(((2-(6-ethoxypyridin-3-yl)-4-morpholinothieno[3,2-d]pyrimidin-6-yl)methyl)(methyl)amino)-N-hydroxypyrimidine-5-carboxamide], in that order: 162 to 165 °C and less than 100 nM.
For `CN(Cc1cc2nc(-c3ccc(OCCO)nc3)nc(N3CCOCC3)c2s1)c1ncc(C(=O)NO)cn1` [Compound 256, N-Hydroxy-2-(((2-(6-(2-hydroxyethoxy)pyridin-3-yl)-4-morpholinothieno[3,2-d]pyrimidin-6-yl)methyl)(methyl)amino)pyrimidine-5-carboxamide], in that order: 143 to 145 °C and less than 100 nM.
Compound `CN(C)CCOc1ccc(-c2nc(N3CCOCC3)c3sc(CN(C)c4ncc(C(=O)NO)cn4)cc3n2)cn1` [Compound 257, 2-(((2-(6-(2-(Dimethylamino)ethoxy)pyridin-3-yl)-4-morpholinothieno[3,2-d]pyrimidin-6-yl)methyl)(methyl)amino)-N-hydroxypyrimidine-5-carboxamide] came in with a melting point of 140 to 143 °C. The concentration for half-maximal inhibition (IC50) in data set [1] is less than 100 nM.
The matching figures for `CNCCOc1ccc(-c2nc(N3CCOCC3)c3sc(CN(C)c4ncc(C(=O)NO)cn4)cc3n2)cn1` [Compound 258, N-Hydroxy-2-(methyl((2-(6-(2-(methylamino)ethoxy)pyridin-3-yl)-4-morpholinothieno[3,2-d]pyrimidin-6-yl)methyl)amino)pyrimidine-5-carboxamide]: 170 to 175 °C and less than 100 nM.
The matching figures for `CN(Cc1cc2nc(-c3ccc(OCCN)nc3)nc(N3CCOCC3)c2s1)c1ncc(C(=O)NO)cn1` [Compound 259, 2-(((2-(6-(2-Aminoethoxy)pyridin-3-yl)-4-morpholinothieno[3,2-d]pyrimidin-6-yl)methyl)(methyl)amino)-N-hydroxypyrimidine-5-carboxamide]: 110 to 115 °C and less than 100 nM.
For `COc1ncc(-c2nc(N3CCOCC3)c3sc(C(C)N(C)c4ncc(C(=O)NO)cn4)cc3n2)cn1` (stereo not shown) [Compound 262, N-Hydroxy-2-((1-(2-(2-methoxypyrimidin-5-yl)-4-morpholinothieno[3,2-d]pyrimidin-6-yl)ethyl)(methyl)amino)pyrimidine-5-carboxamide], in that order: 210 to 215 °C and less than 100 nM.
On to `COc1ncc(-c2nc(N3CCOCC3)c3sc(C(C)(C)Nc4ncc(C(=O)NO)cn4)cc3n2)cn1` [Compound 263, N-Hydroxy-2-(2-(2-(2-methoxypyrimidin-5-yl)-4-morpholinothieno[3,2-d]pyrimidin-6-yl)propan-2-ylamino)pyrimidine-5-carboxamide], for which the melting point fell in the range of 202 to 207 °C. This compound came in with an IC50 in data set [1] of less than 100 nM.
The matching figures for `Nc1ccc(-c2nc(N3CCOCC3)c3sc(S(=O)(=O)Nc4ncc(C(=O)NO)cn4)cc3n2)cc1` [Compound 271, 2-[2-(4-Amino-phenyl)-4-morpholin-4-yl-thieno[3,2-d]pyrimidine-6-sulfonylamino]-pyrimidine-5-carboxylic acid hydroxyamide]: 197 to 205 °C and less than 100 nM.
Turning to `CN(Cc1cc2nc(-c3ccc(N)c(Cl)c3)nc(N3CCOCC3)c2s1)c1ncc(C(=O)NO)cn1` [Compound 275, 2-(((2-(4-Amino-3-chlorophenyl)-4-morpholinothieno[3,2-d]pyrimidin-6-yl)methyl)(methyl)amino)-N-hydroxypyrimidine-5-carboxamide], the melting point was in the range of 241 to 246 °C. Besides, the IC50 in data set [1] was less than 100 nM.
The matching figures for `CN(Cc1cc2nc(-c3ccc(N)c(F)c3)nc(N3CCOCC3)c2s1)c1ncc(C(=O)NO)cn1` [Compound 276, 2-(((2-(4-Amino-3-fluorophenyl)-4-morpholinothieno[3,2-d]pyrimidin-6-yl)methyl)(methyl)amino)-N-hydroxypyrimidine-5-carboxamide]: 203 to 206 °C and less than 100 nM.
The matching figures for `CN(Cc1cc2nc(-c3ccc(N)c([N+](=O)[O-])c3)nc(N3CCOCC3)c2s1)c1ncc(C(=O)NO)cn1` [Compound 278, 2-(((2-(4-Amino-3-nitrophenyl)-4-morpholinothieno[3,2-d]pyrimidin-6-yl)methyl)(methyl)amino)-N-hydroxypyrimidine-5-carboxamide]: 202 to 206 °C and less than 100 nM.
The matching figures for `CN(Cc1cc2nc(-c3ccc(N)c(O)c3)nc(N3CCOCC3)c2s1)c1ncc(C(=O)NO)cn1` [Compound 279, 2-(((2-(4-Amino-3-hydroxyphenyl)-4-morpholinothieno[3,2-d]pyrimidin-6-yl)methyl)(methyl)amino)-N-hydroxypyrimidine-5-carboxamide]: 214 to 218 °C and less than 100 nM.
